Source: US6607885B1, “Method for high-density microarray medicated gene expression profiling” (priority 1999, dated 2003)

Assays:
Assay type in all cases: cell-based, Escherichia coli
E. coli DM803 (lexAind) = assay: MMC exposure, gene expression profile of DM803 (lexAind); conditions: MMC for 40 min
Experimental: (§1) Strains E. coli strain, MG1655, was used to determine the gene expression profile of E. coli in response to a MMC challenge. Two isogenic E. coli strains (Mount et al, J. Bacteriol. 112:886-893 (1972)), DM800 (lexA^+), used as control displaying a normal response to DNA damage, and DM803 (lexA^ind), a strain unable to mount the predominant “SOS” response to DNA damage, were compared using comprehensive gene expression profiling.
(§2) MMC experiment MG1655 cells were grown in LB overnight with aeration. The overnight cultures were diluted 100 fold in LB to final volume of 500 mL and grown at 37° C. to exponential phase. 200 mL of culture was treated with MMC to the final concentration of 250 ng/mL. Another 200 mL of culture were mock treated without MMC for comparison. Cells were harvested at 15 min and 40 min for MG1655 strain. With DM800 and DM803 stains, cells, cultured in an identical manner, were harvested after 40 min exposure. RNA was isolated and gene expression profile was analyzed as shown in Examples 1 and 2.

E. coli DM800 (lexA+) = assay: MMC exposure, gene expression profile of DM800 (lexA+); conditions: MMC for 40 min
Experimental: as §1, §2

E. coli strain MG1655 = assay: MMC exposure, gene expression profile of MG1655
Experimental: as §1, §2

E. coli MG1655 = assay: IPTG induction, micro-array gene expression profiling
Experimental: E. coli MG1655 was cultured with aeration in either the minimal medium, M9 (Miller, J. H., Experiments in Molecular Genetics, Cold Spring Harbor (1972)), supplemented with 0.4% glucose or in the rich medium, LB (Miller, J. H., Experiments in Molecular Genetics, Cold Spring Harbor (1972)), at 37° C. The overnight culture was diluted 250 fold into fresh medium and aerated by shaking at 37° C. Samples of the minimal medium culture were harvested at A600=0.40 (exponential phase) and 1.6 (transition to stationary phase) prior to RNA isolation. An IPTG induction (Miller, J. H., Experiments in Molecular Genetics, Cold Spring Harbor (1972)) was performed to examine the specificity with which it effects gene expression. A culture grown overnight in LB at 37° C. was diluted 250 fold into fresh LB and aerated at 37° C. When the culture achieved an appropriate density (A600=0.40), it was split. To one portion was added IPTG to a final concentration of 1 mM; the untreated sample served as a control. Incubation of both samples was continued with aeration at 37° C. for another 15 min (A600=0.45 for both cultures) before RNA isolation was initiated.
RNA Isolation. An equivalent volume of shaved ice was added to 50 mL samples which were pelleted immediately in a refrigerated centrifuge by spinning at 10,410×g for 2 min. Each resultant pellet was resuspended in a mixture containing 100 μL of Tris HCl (10 mM, pH 8.0) and 350 μL of β-mercaptoethanol supplemented RLT buffer [Qiagen RNeasy Mini Kit, Valencia, Calif.]. The cell suspension was added to a chilled 2 mL screwed-capped microfuge tube containing 100 μL of 0.1 mm zirconia/silica beads (Biospec Product Inc., Bartlesville, Okla.). The cells were broken by agitation at room temperature for 25 sec with a Mini-Beadbeater™ (Biospec Products Inc., Bartlesville, Okla.). Debris was pelleted by centrifugation for 3 min at 16,000×g and 4° C.; the resultant supernatant was mixed with 250 μL of ethanol. This mixture was loaded onto a column from the Qiagen RNeasy Mini Kit. RNA isolation was completed using the protocol supplied with this kit. Incubation for 1 hr. at 37° C. in 40 mM Tris pH 8.0, 10 mM NaCl, 6 mM MgCl2 with RNase free RQ1 DNase (1 unit/μL, Promega, Madison, Wis.) digested any genomic DNA contaminating the RNA preparation. The digestion products were purified by a second passage through the RNeasy protocol (Qiagen, Valencia, Calif.). The product was eluted from the column in 50 μL RNAse-free water prior to determining sample concentration by an A260 reading. RNA preparations were stored frozen at either −20 or −80° C.
Synthesis of fluorescent cDNA from total RNA. Six microgram of RNA template and 12 μg of random hexamer primers (Operon Technologies, Inc., Alameda, Calif.) were diluted with double distilled (dd) water to a volume of 22 μL. Annealing was accomplished by incubation at 70° C. for 10 min followed by 10 min at room temperature. In order were added: 8 μL of 5×SuperScript II reaction buffer (Life Technologies, Inc., Gaithersberg, Md.), 4 μL of 0.1 M DTT, 2 μL of the dNTP mix (2 mM dATP, 2 mM dGTP, 2 mM TTP, 1 mM dCTP), 2 μL of 0.5 mM Cy3- or Cy5-dCTP (Amersham Pharmacia Biotech, Arlington Heights, Ill.), and 2 μL of SuperScript II reverse transcriptase ([…], Life Technologies Inc., Gaithersberg, Md.). DNA synthesis proceeded at 42° C. for 2.5 hr. before the reaction was terminated by heating at 94° C. for 5 min. Alkaline hydrolysis of the RNA templates was achieved by adding 2 μL of 5M NaOH followed by incubation at 37° C. for 10 min. Hydrolysis was terminated by the sequential addition of 3 μL of 5M HCl and 5 μL of 1M Tris-HCl, pH 6.8. The labeled cDNA was purified with a PCR purification kit (Qiagen, Valencia, Calif.), dried in a speed vacuum and stored at −20° C. Labeling efficiency was monitored using either A550, for Cy3 incorporation, or A650, for Cy5 labeling, to A260 ratios.
Hybridization and washing. […]

| Compound | induction of SOS responsive genes, including lexA (E. coli DM803 (lexAind)) | induction of dicB, dicC, sdiA, cheW, motA, cycA, fadL, chaC, codB and btuC (E. coli DM803 (lexAind)) | induction of SOS responsive genes (E. coli DM800 (lexA+)) | induction of dicB, dicC, sdiA, cheW, motA, cycA, fadL, chaC, codB and btuC (E. coli DM800 (lexA+)) | number of genes with expression elevated greater than 2 fold relative to the control (E. coli strain MG1655; 40 min exposure, MMC 250 ng/mL) | number of stress response genes induced more than 2 fold (E. coli strain MG1655; 40 min exposure, recN, dinI, sulA, lexA, recA, uvrA, dinD, priC, umuC, mioC, uvrB, ruvA, xseA) | SOS response (E. coli strain MG1655; cells harvested at 15 min post exposure, MMC 250 ng/mL) | number of genes whose expression increased by a factor of more than 2 (E. coli MG1655; 1 mM IPTG for 15 min) | two-fold or greater repression of arrayed genes (E. coli MG1655; 1 mM IPTG for 15 min) | fold IPTG induction of b0956/ycbG (E. coli MG1655; gene b0956/ycbG (hydrogenase?), 1 mM IPTG, 15 min, LB, 37° C.) | fold IPTG induction of b1783/yeaG (E. coli MG1655; gene b1783/yeaG, 1 mM IPTG, 15 min, LB, 37° C.) | fold IPTG induction of b2324 (E. coli MG1655; gene b2324 (peptidase?), 1 mM IPTG, 15 min, LB, 37° C.) | fold IPTG induction of lacA (E. coli MG1655; gene lacA (thiogalactoside acyltransferase), 1 mM IPTG, 15 min, LB, 37° C.) | fold IPTG induction of lacY (E. coli MG1655; gene lacY (galactoside permease), 1 mM IPTG, 15 min, LB, 37° C.) | fold IPTG induction of lacZ (E. coli MG1655; gene lacZ (galactosidase), 1 mM IPTG, 15 min, LB, 37° C.) | fold IPTG induction of melA (E. coli MG1655; gene melA (galactosidase), 1 mM IPTG, 15 min, LB, 37° C.) | fold IPTG induction of uxaA (E. coli MG1655; gene uxaA (altronate hydrolase), 1 mM IPTG, 15 min, LB, 37° C.) |
| --- | --- | --- | --- | --- | --- | --- | --- | --- | --- | --- | --- | --- | --- | --- | --- | --- | --- |
| CO[C@@]12[C@H](COC(N)=O)C3=C(C(=O)C(C)=C(N)C3=O)N1C[C@@H]1N[C@@H]12 [MMC, mitomycin C] | not induced | greater than 2 fold | greater than 2 fold | not induced | 40 genes | 13 genes | very little | – | – | – | – | – | – | – | – | – | – |
| CC(C)S[C@@H]1O[C@H](CO)[C@H](O)[C@H](O)[C@H]1O [IPTG, isopropylthiogalactoside] | – | – | – | – | – | – | – | 8 genes | not observed | 2.5 fold | 3.6 fold | 5.3 fold | 36 fold | 14 fold | 29 fold | 2.9 fold | 4.0 fold |
